Laboratory results: patent US10870647B2, “Imidazopyridine derivative, method for preparing same, and pharmaceutical composition containing same as active ingredient for preventing or treating cancer” (DAEGU-GYEONGBUK MEDICAL INNOVATION FOUNDATION, priority 2016, dated 2020)
Like-named read-outs stand apart in the source and are kept apart here.

Experiments:
Assay in all cases: Kinase selectivity, scanMAX Kinase assay panel (DiscoverX), % control at 1 uM
Format in all cases: binding
[1] = target: T1, scanMAX Kinase assay panel (Homo sapiens, UniProt P36507); conditions: MEK2; 1 uM; read-out: Percent Control (%)
T1 construct: purchased DiscoverX
T1 sequence (P36507 whole entry): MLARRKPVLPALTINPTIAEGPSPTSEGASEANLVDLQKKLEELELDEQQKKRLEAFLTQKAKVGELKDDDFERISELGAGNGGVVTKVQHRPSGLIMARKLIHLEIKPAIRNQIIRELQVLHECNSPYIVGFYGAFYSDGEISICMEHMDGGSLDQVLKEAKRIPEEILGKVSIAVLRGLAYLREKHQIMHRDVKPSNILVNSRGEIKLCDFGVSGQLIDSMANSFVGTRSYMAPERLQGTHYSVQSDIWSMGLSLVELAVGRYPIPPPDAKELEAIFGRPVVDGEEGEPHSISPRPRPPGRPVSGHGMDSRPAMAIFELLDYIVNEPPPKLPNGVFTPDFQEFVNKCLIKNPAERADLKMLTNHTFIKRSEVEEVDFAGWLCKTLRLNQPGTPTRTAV
In short: (§1)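 Single-point screen at 1 uM compound in DMSO. Lower % control means stronger inhibition, with the cutoff for activity set at <35%.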

[2] = target: T2, scanMAX Kinase assay panel (Homo sapiens, UniProt O14757); conditions: CHEK1; 1 uM; read-out: Percent Control (%)
T2 construct: purchased DiscoverX
T2 sequence (O14757 1-476): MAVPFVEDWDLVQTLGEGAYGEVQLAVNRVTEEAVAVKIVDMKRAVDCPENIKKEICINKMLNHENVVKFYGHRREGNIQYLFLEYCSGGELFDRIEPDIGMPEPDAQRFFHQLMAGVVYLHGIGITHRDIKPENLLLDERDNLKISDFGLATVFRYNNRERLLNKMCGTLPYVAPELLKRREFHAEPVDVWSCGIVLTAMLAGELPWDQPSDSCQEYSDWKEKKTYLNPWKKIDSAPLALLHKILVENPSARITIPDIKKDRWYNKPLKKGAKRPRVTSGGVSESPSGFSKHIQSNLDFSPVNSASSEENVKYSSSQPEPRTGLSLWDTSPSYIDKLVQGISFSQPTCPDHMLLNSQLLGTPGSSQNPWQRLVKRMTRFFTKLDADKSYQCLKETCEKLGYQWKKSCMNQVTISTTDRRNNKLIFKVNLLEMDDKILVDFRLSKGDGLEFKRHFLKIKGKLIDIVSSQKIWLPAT
In short: as §1

[3] = target: T3, scanMAX Kinase assay panel (Homo sapiens, UniProt O43318); conditions: TAK1; 1 uM; read-out: Percent Control (%)
T3 construct: purchased DiscoverX
T3 sequence (O43318 1-606): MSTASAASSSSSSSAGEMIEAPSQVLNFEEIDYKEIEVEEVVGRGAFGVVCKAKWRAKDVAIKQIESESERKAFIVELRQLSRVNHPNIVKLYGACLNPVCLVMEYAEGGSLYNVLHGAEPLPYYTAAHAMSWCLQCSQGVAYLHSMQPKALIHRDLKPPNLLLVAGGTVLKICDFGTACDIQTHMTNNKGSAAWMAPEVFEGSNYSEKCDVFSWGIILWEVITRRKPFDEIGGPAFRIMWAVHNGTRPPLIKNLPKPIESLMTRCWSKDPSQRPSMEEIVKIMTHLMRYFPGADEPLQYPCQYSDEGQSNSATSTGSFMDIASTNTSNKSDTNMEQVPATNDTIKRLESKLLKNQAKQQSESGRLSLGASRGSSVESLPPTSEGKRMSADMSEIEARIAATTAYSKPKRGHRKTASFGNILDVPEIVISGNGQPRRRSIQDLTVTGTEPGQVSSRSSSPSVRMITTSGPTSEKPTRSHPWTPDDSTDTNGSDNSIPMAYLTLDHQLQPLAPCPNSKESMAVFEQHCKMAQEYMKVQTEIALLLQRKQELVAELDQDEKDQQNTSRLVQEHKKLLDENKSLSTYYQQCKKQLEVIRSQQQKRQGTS
In short: as §1

[4] = target: T4, scanMAX Kinase assay panel (Homo sapiens, UniProt O75676); conditions: 1 uM, read-out: Percent Control (%)
T4 construct: purchased DiscoverX
T4 sequence (O75676 whole entry): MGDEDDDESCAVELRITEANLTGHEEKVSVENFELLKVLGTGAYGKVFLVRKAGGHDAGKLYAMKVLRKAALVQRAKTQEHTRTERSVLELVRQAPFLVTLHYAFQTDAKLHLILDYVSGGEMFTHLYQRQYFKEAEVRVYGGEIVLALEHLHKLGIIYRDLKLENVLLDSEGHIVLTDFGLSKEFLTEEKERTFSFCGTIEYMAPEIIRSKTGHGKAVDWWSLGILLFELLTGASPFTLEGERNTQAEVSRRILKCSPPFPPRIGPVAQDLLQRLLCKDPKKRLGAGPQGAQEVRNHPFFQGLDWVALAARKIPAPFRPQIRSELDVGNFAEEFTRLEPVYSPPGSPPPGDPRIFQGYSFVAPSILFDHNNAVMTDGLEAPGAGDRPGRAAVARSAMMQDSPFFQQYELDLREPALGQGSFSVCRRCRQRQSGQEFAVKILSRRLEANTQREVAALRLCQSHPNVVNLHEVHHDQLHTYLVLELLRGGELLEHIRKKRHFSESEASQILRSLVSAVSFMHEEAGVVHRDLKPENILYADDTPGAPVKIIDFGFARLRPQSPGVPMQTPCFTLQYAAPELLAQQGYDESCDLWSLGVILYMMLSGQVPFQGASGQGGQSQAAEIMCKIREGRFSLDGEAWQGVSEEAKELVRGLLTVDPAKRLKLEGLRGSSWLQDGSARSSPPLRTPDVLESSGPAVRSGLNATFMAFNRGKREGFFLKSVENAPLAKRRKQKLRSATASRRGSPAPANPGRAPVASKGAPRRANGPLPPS
In short: as §1

[5] = target: T5, scanMAX Kinase assay panel (Homo sapiens, UniProt P42684); conditions: ABL2; 1 uM; read-out: Percent Control (%)
T5 construct: purchased DiscoverX
T5 sequence (P42684 whole entry): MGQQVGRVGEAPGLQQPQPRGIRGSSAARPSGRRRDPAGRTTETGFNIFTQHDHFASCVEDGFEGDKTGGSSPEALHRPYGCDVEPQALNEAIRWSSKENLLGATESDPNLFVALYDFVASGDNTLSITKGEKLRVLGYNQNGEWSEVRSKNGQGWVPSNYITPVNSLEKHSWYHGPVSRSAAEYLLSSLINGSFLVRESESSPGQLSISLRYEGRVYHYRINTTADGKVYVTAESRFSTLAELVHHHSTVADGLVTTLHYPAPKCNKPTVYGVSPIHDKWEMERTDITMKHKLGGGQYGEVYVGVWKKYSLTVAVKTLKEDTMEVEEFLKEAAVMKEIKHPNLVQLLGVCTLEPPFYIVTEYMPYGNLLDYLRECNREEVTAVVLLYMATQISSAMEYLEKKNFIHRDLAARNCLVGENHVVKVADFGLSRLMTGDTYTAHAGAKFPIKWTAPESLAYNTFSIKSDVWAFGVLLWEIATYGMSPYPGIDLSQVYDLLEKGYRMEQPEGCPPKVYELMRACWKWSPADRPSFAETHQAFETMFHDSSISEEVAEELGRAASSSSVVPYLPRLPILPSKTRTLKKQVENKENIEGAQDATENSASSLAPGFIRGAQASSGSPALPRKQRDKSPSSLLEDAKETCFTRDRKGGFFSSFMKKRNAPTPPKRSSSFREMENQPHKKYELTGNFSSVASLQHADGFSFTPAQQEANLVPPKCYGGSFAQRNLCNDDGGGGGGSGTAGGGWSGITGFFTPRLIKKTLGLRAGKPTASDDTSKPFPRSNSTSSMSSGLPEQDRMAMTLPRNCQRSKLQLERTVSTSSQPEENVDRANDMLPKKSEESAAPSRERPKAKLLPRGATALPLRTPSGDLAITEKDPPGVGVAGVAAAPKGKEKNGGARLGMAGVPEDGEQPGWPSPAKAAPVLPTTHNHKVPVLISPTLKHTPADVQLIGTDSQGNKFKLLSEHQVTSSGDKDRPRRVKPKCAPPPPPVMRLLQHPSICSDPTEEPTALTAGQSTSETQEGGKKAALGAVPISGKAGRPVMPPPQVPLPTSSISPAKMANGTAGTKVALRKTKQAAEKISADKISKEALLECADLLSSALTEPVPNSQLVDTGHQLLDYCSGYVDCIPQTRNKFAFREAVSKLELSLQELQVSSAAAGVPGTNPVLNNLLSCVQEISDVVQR
In short: as §1

[6] = target: T6, scanMAX Kinase assay panel (Homo sapiens, UniProt O14936); conditions: CASK; 1 uM; read-out: Percent Control (%)
T6 construct: purchased DiscoverX
T6 sequence (O14936 1-926): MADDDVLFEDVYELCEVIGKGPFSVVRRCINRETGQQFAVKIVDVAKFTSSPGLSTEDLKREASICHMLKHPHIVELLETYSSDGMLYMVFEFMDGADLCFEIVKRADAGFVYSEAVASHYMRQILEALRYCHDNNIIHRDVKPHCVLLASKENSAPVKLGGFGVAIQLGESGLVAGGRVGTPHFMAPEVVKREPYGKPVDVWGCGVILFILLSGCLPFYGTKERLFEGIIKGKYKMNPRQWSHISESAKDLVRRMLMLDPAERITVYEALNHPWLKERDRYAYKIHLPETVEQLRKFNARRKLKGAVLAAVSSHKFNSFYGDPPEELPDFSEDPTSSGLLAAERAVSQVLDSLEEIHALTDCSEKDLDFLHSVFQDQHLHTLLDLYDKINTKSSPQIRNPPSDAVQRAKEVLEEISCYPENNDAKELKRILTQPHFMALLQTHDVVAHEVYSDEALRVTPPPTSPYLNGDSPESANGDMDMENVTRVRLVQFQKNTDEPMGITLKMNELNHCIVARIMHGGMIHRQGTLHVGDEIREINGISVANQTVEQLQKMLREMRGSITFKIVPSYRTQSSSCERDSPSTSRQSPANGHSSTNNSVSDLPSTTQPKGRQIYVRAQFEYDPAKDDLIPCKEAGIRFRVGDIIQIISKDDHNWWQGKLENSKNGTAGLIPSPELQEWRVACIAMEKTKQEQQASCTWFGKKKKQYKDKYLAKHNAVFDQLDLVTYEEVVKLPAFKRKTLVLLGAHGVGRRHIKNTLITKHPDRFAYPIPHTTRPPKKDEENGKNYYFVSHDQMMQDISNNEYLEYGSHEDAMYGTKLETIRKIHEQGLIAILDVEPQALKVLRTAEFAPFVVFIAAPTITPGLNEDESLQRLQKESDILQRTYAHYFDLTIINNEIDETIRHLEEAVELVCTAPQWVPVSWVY
In short: as §1

[7] = target: T7, scanMAX Kinase assay panel (Homo sapiens, UniProt Q86Z02); conditions: HIPK1; 1 uM; read-out: Percent Control (%)
T7 construct: purchased DiscoverX
T7 sequence (Q86Z02 whole entry): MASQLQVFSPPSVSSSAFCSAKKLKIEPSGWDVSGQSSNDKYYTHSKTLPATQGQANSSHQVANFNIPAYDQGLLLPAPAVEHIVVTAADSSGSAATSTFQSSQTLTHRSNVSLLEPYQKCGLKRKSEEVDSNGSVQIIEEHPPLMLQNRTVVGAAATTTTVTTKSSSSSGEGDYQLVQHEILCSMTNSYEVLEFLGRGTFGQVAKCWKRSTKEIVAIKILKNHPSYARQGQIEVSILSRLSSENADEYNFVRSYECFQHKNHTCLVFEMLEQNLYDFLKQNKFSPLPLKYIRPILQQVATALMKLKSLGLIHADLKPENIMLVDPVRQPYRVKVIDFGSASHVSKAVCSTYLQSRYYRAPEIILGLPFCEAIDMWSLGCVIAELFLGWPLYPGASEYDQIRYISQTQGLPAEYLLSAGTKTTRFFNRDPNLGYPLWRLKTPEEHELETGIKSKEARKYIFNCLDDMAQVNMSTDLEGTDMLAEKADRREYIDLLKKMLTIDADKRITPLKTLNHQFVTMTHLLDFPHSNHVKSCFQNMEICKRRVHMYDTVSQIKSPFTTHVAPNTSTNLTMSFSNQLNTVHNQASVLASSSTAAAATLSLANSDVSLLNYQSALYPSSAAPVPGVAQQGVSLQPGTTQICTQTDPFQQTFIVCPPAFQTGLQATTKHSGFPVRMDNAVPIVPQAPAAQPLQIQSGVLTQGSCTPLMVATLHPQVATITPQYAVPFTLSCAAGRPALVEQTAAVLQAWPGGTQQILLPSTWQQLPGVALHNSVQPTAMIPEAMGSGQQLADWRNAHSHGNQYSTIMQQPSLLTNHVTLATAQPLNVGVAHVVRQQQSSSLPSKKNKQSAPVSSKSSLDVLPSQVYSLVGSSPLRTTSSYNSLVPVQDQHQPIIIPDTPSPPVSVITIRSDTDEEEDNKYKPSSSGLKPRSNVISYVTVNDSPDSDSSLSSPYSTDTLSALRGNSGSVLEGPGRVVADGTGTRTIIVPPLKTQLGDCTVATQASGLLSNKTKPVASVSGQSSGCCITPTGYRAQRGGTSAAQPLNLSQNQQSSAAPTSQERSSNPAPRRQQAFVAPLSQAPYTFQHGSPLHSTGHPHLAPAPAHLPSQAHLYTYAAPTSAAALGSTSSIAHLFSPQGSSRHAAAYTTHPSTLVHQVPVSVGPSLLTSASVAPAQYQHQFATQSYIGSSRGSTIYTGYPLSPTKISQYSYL
In short: as §1

[8] = target: T8, scanMAX Kinase assay panel (Homo sapiens, UniProt P53667); conditions: LIMK1; 1 uM; read-out: Percent Control (%)
T8 construct: purchased DiscoverX
T8 sequence (P53667 whole entry): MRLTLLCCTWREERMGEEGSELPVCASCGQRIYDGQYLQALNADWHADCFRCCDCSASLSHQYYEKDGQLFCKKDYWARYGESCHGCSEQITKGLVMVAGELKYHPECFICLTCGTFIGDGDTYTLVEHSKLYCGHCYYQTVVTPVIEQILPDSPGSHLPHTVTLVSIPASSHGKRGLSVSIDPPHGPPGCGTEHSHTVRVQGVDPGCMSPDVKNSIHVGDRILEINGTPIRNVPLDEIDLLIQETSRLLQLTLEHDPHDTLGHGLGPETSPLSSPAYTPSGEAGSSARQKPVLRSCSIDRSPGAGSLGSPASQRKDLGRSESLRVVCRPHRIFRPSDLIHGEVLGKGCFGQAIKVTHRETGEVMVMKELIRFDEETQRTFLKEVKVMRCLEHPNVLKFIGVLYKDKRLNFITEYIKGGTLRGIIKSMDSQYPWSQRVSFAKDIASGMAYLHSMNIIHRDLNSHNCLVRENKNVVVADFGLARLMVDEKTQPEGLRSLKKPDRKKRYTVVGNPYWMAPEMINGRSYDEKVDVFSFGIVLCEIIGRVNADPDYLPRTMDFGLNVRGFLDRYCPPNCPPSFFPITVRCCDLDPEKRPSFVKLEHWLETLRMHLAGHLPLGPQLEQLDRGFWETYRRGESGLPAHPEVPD
In short: as §1

[9] = target: T9, scanMAX Kinase assay panel (Homo sapiens, UniProt Q9UQM7); conditions: CAMK2A; 1 uM; read-out: Percent Control (%)
T9 construct: purchased DiscoverX
T9 sequence (Q9UQM7 whole entry): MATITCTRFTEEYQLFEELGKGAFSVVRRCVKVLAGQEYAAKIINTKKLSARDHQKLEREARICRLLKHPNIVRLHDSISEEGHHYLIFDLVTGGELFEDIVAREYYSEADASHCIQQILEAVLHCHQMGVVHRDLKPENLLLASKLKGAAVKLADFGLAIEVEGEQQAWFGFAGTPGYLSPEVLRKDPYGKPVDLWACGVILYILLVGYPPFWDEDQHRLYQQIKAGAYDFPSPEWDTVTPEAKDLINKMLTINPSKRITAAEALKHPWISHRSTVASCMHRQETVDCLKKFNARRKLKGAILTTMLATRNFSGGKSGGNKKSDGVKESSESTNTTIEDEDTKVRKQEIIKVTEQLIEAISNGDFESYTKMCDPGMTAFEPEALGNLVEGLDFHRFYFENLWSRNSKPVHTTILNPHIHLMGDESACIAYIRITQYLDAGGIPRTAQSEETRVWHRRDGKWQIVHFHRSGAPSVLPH
In short: as §1

Cc1ccc(C(=O)Nc2ccc(CN3CCN(C)CC3)c(C(F)(F)F)c2)cc1C#Cc1cnc2c(Nc3cnn(C)c3)cccn12 [Example 1, 4-methyl-3-((8-((1-methyl-1H-pyrazol-4-yl)amino)imidazo[1,2-a]pyridin-3-yl)ethynyl)-N-(4-((4-methylpiperazin-1-yl)methyl)-3-(trifluoromethyl)phenyl)benzamide]
remaining binding at 1 µM [1]: 76% | remaining binding at 1 µM [2]: 90% | remaining binding at 1 µM [3]: 0% | remaining binding at 1 µM ([4]; RPS6KA4 (Kin.Dom.1-N-terminal)): 31% | remaining binding at 1 µM ([4]; RPS6KA4 (Kin.Dom.2-C-terminal)): 94% | remaining binding at 1 µM [5]: 0% | remaining binding at 1 µM [6]: 74% | remaining binding at 1 µM [7]: 51% | remaining binding at 1 µM [8]: 4% | remaining binding at 1 µM [9]: 82%

Cc1cn(-c2cc(NC(=O)c3ccc(C)c(C#Cc4cnc5c(Nc6cnn(C)c6)cccn45)c3)cc(C(F)(F)F)c2)cn1 [Example 12, 4-methyl-N-(3-(4-methyl-1H-imidazol-1-yl)-5-(trifluoromethyl)phenyl)-3-((8-((1-methyl-1H-pyrazol-4-yl)amino)imidazo[1,2-a]pyridin-3-yl)ethynyl)benzamide]
remaining binding at 1 µM [1]: 88% | remaining binding at 1 µM [2]: 100% | remaining binding at 1 µM [3]: 14% | remaining binding at 1 µM ([4]; RPS6KA4 (Kin.Dom.1-N-terminal)): 85% | remaining binding at 1 µM ([4]; RPS6KA4 (Kin.Dom.2-C-terminal)): 100% | remaining binding at 1 µM [5]: 1% | remaining binding at 1 µM [6]: 90% | remaining binding at 1 µM [7]: 71% | remaining binding at 1 µM [8]: 38% | remaining binding at 1 µM [9]: 96%

Cc1ccc(NC(=O)C2(C(=O)Nc3ccc(F)cc3)CC2)cc1C#Cc1cnc2c(Nc3cnn(C(C)C)c3)cccn12 [Example 78]
remaining binding at 1 µM [1]: 97% | remaining binding at 1 µM [2]: 98% | remaining binding at 1 µM [3]: 76% | remaining binding at 1 µM ([4]; RPS6KA4 (Kin.Dom.1-N-terminal)): 94% | remaining binding at 1 µM ([4]; RPS6KA4 (Kin.Dom.2-C-terminal)): 78% | remaining binding at 1 µM [5]: 14% | remaining binding at 1 µM [6]: 100% | remaining binding at 1 µM [7]: 91% | remaining binding at 1 µM [8]: 100% | remaining binding at 1 µM [9]: 100%
